Reference: patent publication EP0379737A2, “Dihydropyridine derivatives for the treatment of angiospasm” (THE GREEN CROSS CORPORATION, priority 1988, dated 1990)

What was measured:
[1] = Toxicity: LD50 determination in mice; settings: mouse, in vivo; 10 to 11-week-old male mice, 3 to 5 mice per group; read-out: LD₅₀
Description: LD₅₀ was determined for Compound 2 as prepared in Reference Example 1 below using 10 to 11-week-old male mice (body weight: 14 to 16 g; 3 to 5 mice per group). AS a result, measured LD₅₀ values were more than 1,100 mg/kg at the lowest.

[2] = test system: coronarism induced by laser cauterization of the coronary artery; experiment: Preventive effect of premedication with coronary vasodilators on coronarism induced by laser cauterization of the coronary artery; type: in vivo; settings: anesthetized dogs, drugs given 10 minutes before cauterization (TNG 100 µg i.c. + 50 µg/min d.i.v.; NC 30 µg/kg/min d.i.v.; Compound 2 10 µg/kg i.v.); for Degree of Stenosis (%) (m ± SE) 10 mins. After: 10 minutes after cauterization; for Degree of Stenosis (%) (m ± SE) 30 mins. After: 30 minutes after cauterization; for Degree of Stenosis (%) (m ± SE) Immediately After: immediately after cauterization
Description: Preventive effect of premedication of coronary vasodilators on coronarism induced by laser cauterization of the coronary artery was examined using dogs.
Twenty-three anesthetized dogs premediated with a coronary vasodilator [8 dogs in non-treated group (control group); 7 in nitroglycerin-treated (TNG) group (100 µg i.c. (intracoronary) + 50 µg/min d.i.v. (intravenous drip injection)); 5 in Nicorandil (NC) group (30 µg/kg/min d.i.v); and 8 in Compound 2 (hereinafter described) group (10 µg/kg i.v.)] were used. A 9F guiding catheter was inserted from the right common carotid artery into the 28th circumflex ramus extending from the anterior descending branch of the right common carotid artery. After intravenous injection of 250 U of heparin and 20 mg of lidocaine, a probe having an argon laser heating tip having a diameter of 1.5 mm (manufactured by Trimedyne Corp.) was inserted through the catheter, and 10 minutes after the administration of drugs the coronary vessel was cauterized under a condition of 4.5 W × […] under photofluoroscopic observation. Before the cauterization, immediately after the cauterization, and 10 minutes and 30 minutes after the cauterization, changes of the coronary artery were angiographically observed. The degree of stenosis (%) was calculated from the measured inner diameter each of the cauterized site and the normal site. The degree of stenosis of a site undergoing retardation of angiography was taken as 99%.

Row | SMILES | LD50 [1] [mg/kg] | Degree of Stenosis (%) (m ± SE) 10 mins. After [2] | Degree of Stenosis (%) (m ± SE) 30 mins. After [2] | Degree of Stenosis (%) (m ± SE) Immediately After [2]
1 | COC(=O)C1=C(C)NC(C)=C(C(=O)OCCc2ccc(N3CCN(C(c4ccccc4)c4ccccc4)CC3)cc2)C1c1cccc([N+](=O)[O-])c1 (stereo not shown) [Compound 2, 2-[p-(4-benzhydrylpiperazino)phenyl]ethyl methyl 2,6-dimethyl-4-(3-nitrophenyl)-1,4-dihydropyridine-3,5-dicarboxylate] | > 1100 | 9 ± 10 | 12 ± 12 | 12 ± 12
2 | O=C(NCCO[N+](=O)[O-])c1cccnc1 [NC, Nicorandil] |  | 28 ± 9 | 29 ± 8 | 38 ± 11
3 | O=[N+]([O-])OCC(CO[N+](=O)[O-])O[N+](=O)[O-] [TNG, nitroglycerin] |  | 73 ± 17 | 66 ± 17 | 71 ± 4
